# According to EP4759810A1, “PROTAC TARGETING BCL-XL PROTEIN AND USE THEREOF” (BEIJING SUNCELL BIO-MEDICAL CO., LTD., priority 2023, dated 2025):
# Legend:
# [1] = tested on: Molt-4 cells; assay: Molt-4 cell killing activity test (CCK-8); type: cell-based
# In short: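 Molt-4 cells in RPMI-1640 with 10% FBS were exposed to compounds at 0.001–3 µM final, triplicate wells, for three days at 37°C. Viability was read by CCK-8 absorbance at 450 nm after 0.5–2 h, expressed relative to blank control.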
# [2] = Metabolic stability assay in liver microsomes (mouse); type: in vitro ADME
# Protocol: (§1) The metabolic reaction of compounds in liver microsome was performed in a system with a total volume of 400 µL, and the following steps below were sequentially performed for the reaction and detection: 1) 200 µL of phosphate buffer (200 mM), 106 µL of sterile ultrapure water, and 40 µL of magnesium chloride solution (50 mM) were added to each detection tube to prepare a reaction working solution. 2) Two reaction systems with or without adding NADPH were prepared for each compound to be tested. For the reaction system with adding NADPH: 10 µL of liver microsomes (20 mg/mL) and 40 µL of NADPH (10 mM) were added to the above working solution; for the reaction system without adding NADPH: 10 µL of liver microsomes (20 mg/mL) and 40 µL of sterile ultrapure water were added to the above working solution. The final concentration of liver microsomes in both reaction systems was 0.5 mg/mL. 3) 4 µL of the compound to be tested ([…]) was added to each reaction tube, resulting in a final concentration of 1 µM for the compound in the reaction system. The detection tubes were placed at 37°C for reaction. 4) 50 µL samples were taken from each detection tube at 0, 15, 30, 45, and 60 minutes after adding the compound. The reaction was terminated by adding cold acetonitrile containing IS (100 nM alprazolam, 200 nM labetalol, 200 nM caffeine, and 2 µM ketoprofen) in a 4× volume. The samples were centrifuged at 3220 g for 40 minutes, 100 µL of the supernatant was mixed with 100 µL of ultrapure water, and a sample was taken for LC-MS/MS analysis.
# (§2) Calculation of in vitro liver microsomal metabolic half-life and in vitro metabolic intrinsic clearance rate: The LC-MS detection results were analyzed to obtain the percentage of the remaining amount of the tested compound relative to the initial amount at each time point. The natural logarithm of the remaining percentage was linearly fitted against the incubation time.
# [3] = tested on: platelets; assay: In vivo platelet toxicity test in mice; conditions: intraperitoneal
# Protocol: The in vivo platelet toxicity test was performed by using 5-6 week old female C57BL/6J mice. The C57BL/6J mice were purchased from Beijing Vital River Laboratory Animal Technology Co., Ltd. and housed under specific pathogen-free (SPF) conditions, with a 12-hour light/12-hour dark cycle, and free access to food and water. […] Different doses of the molecules to be tested (e.g., 0.1, 0.5, 2.5 mg/kg or 2, 5, 20 mg/kg) were prepared in advance with the aforementioned vehicle, and administered to mice via intraperitoneal injection at a volume of 200 µL for each mouse. After administration was completed, approximately 50 µL of blood was collected from each mouse at different time points via the intra-canthus sampling method into EDTA anticoagulant tubes (RAM Scientific), then a routine analysis of blood was performed by using a hematology analyzer, and the platelets was counted.
# [4] = Metabolic stability assay in liver microsomes (human); type: in vitro ADME
# Protocol: as §1, §2
# [5] = tested on: HEF cells; assay: Senescent cell killing activity test, HEF cell model (CCK-8); type: cell-based, human; conditions: higher concentration (25 µM)
# Protocol: To avoid replication of the induced senescent cells, low-passage proliferating HEF cells (<10 passages), MRC5 cells (<6 passages), and BJ cells (<10 passages) were used as normal controls. For chemical drug induced senescence, HEF cells were treated with 10 µM etoposide (Selleck, S1225) for 36-48 hours, MRC5 cells were treated with 5 µM bleomycin (Selleck, S1225) for 72 hours, and BJ cells were treated with 10 µg/mL bleomycin for 72 hours. Three days after the treatment, the cells were subcultured in fresh culture medium at a 1:3 ratio for 72 hours before further analysis and use.
# Non-senescent and induced-senescent HEF cells, non-senescent and induced-senescent MRC5 cells, and non-senescent and induced-senescent BJ cells were respectively digested with trypsin, and centrifuged at 1000 rpm for 5 minutes. Then, the supernatant was removed, and the cells were resuspended in fresh DMEM culture medium containing 10% fetal bovine serum for counting. The cell density was adjusted so that the non-senescent cell density was 4000 cells/100 µL and the senescent cell density was 7000 cells/100 µL. 100 µL of the cell suspension was added to each well of a 96-well transparent cell culture plate. It was noted that the edge wells of the 96-well plate were not used as testing wells, and 300 µL of PBS alone was added to these wells to reduce evaporation of the culture medium. The 96-well plates with the well-plated cells were placed back in a 37°C incubator for overnight culture until the cells adhered. On the next day, the small molecule compounds to be tested were prepared and added after the cells had adhered.
# A series of small molecule concentration gradients (0.01, 0.03, 0.1, 0.3, 1, 3, 10, and 25 µM) were pre-set, and a series of 2× drug dilutions for the above concentrations were prepared in DMEM culture medium containing 10% fetal bovine serum. 100 µL of the above DMEM culture medium containing the gradient concentrations of the drug was added to each well of the 96-well plate that had been well-plated with cells, so that the final drug concentration in each well was the pre-set series of concentrations. Three replicate wells were used for each test drug concentration. The 96-well plates were placed back in a 37°C incubator, and cell viability was measured after three days.
# Three days after adding the drug, the plates were taken out, and the supernatant was discarded. 100 µL of pre-prepared CCK-8 working solution was added to each well. The CCK-8 working solution was obtained through diluting a CCK-8 stock solution (C0041, Beyotime) with a serum-free DMEM culture medium by 10-fold volumn. The 96-well plates containing the CCK-8 working solution were placed back in the 37°C incubator and incubated for 0.5-2 hours. The plates were then taken out, and the absorbance value (OD value) of each well was measured at a wavelength of 450 nm. The cell viability in each experimental group was calculated according to the following formula: Relative cell viability (%) = (Blank control group - Experimental group) / Blank control group × 100%.
# [6] = mouse liver microsomes 0.5 mg/mL, 1 µM compound, 37°C
# [7] = human liver microsomes 0.5 mg/mL, 1 µM compound, 37°C
structure (smiles),measurement,setting,value
"Cc1c(-c2ccc(N3CCc4cccc(C(=O)Nc5nc6ccccc6s5)c4C3)nc2C(=O)O)cnn1CC12CC3CC(CC(C3)C1)C2 [Compound A-1331852, A-1331852, reference compound]","killing Molt-4 cells at different concentrations (Figure 1), in words","[1]; Figure 1, 0.001-3 µM, comparison with control molecules",highest cellular activity in the test
same,EC50,"[1]; Homo sapiens, 72 h, Molt-4 cells, three days, CCK-8, read-out: EC50 (Molt-4)",< 10 nM
same,clearance rate (metabolic clearance rate),[2]; mouse liver microsomes,18.43 µL/min/mg
same,Clint,[2]; [6],18.43 µL/min/mg protein
same,T1/2,[2]; [6],75.21 min
same,toxicity on platelets,"[3]; 0.5 mg/kg, Figure 5A",severe toxicity on platelets
same,platelet number in peripheral blood,"[3]; 5 mg/kg, Figure 5B",below 100 × 10^9/L
same,clearance rate (metabolic clearance rate),[4]; human liver microsomes,53.07 µL/min/mg
same,Clint,[4]; [7],53.07 µL/min/mg protein
same,T1/2,[4]; [7],26.12 min
same,toxicity on normal non-senescent HEF cells,[5],toxic killing effects on normal non-senescent HEF cells
